# From patent US20240060146A1, “CHEMICAL SUBSTANCE EVALUATION SYSTEM USING MULTICOLOR LIGHT-EMITTING CELLS” (TOHOKU UNIVERSITY, priority 2020, published 2024)
# Where a name gives a salt, the structure may show the parent alone.
# Columns and labels:
# Type in all cases: cell-based
# [1] = test system: 2H4 cells; test: IL-2 Luc LTT: evaluation of chemical substance in 2H4 cells; settings: for IL-2 Luc LTT: 1 h chemical, then 25 nM PMA and 1 μM ionomycin 24 h, class from Min % suppression (nIL2LA) and Min Inh-GAPLA
# Method: (§1) 2H4 cells were established from Jurkat cells according to the method described in PTL 1. First, for the preparation of 2H4 cells, a plasmid having SLG introduced downstream of the IL-2 promoter, a plasmid having SLR introduced downstream of the G3PDH promoter, and a plasmid having SLO introduced downstream of the INF-γ promoter were prepared as internal standards. These plasmids contained a resistance gene for hygromycin B, puromycin, and neomycin downstream of SLG, SLR, and SLO, respectively. The conditions for drug selection after transfection of the host Jurkat cells were as follows: in the primary selection, the cells were cultured for 1 week in the presence of a drug. In the secondary selection culture, the cells that survived in the primary selection culture were seeded in a 96-well plate at 1 cell/well or 200 cells/well, and cultured for 2 weeks under the same drug conditions. After the secondary selection culture, the cells were subjected to clone selection from the two points of signal intensity and signal induction by drug treatment. The G3PDH promoter SLR was first introduced to establish monochromatic stable cell line Jurkat: G3PDH-SLR #14D1 cells. These cells were used as the parent cell line to introduce the INF-γ promoter SLO, thereby establishing bichromatic stable cell line Jurkat: INFγ-SLO/G3PDH-SLR #2B12 cells. Subsequently, the obtained cells were used as a parent cell line to introduce the IL-2 promoter SLG, thereby establishing trichromatic stable cell line Jurkat IL-2-SLG/INFγ-SLO/G3PDH-SLR #2H4 cells.
# The chemical substances listed in Table 1 were evaluated using 2H4 cells. 2H4 cells were seeded in a 96-well plate at 1×10^4/well and treated with each chemical substance for 1 hour, followed by incubating the cells with 25 nM PMA and 1 μM ionomycin for 24 hours. After 24 hours from the treatment with PMA and ionomycin, Tripluck Assay Reagent (manufactured by Toyobo Co., Ltd.) was added, and the amount of luminescence was measured with a Phelios microplate luminometer (manufactured by Atto Corporation). For control, 2H4 cells untreated with a chemical substance were also examined in the same manner. The amount of luminescence of SLG luciferase activity (IL2LA), SLR luciferase activity (GAPLA), and SLO luciferase activity (IFNLA) was measured, and IL-2LA and IFNLA were each normalized by GAPLA and determined to be nIL2LA and nIFNLA, respectively. Thereafter, for the concentration of each chemical substance, “% suppression” and “Inh-GAPLA” were determined according to the following formulas (1) and (2), and the chemical substances were evaluated by using their minimum value (Min % suppression, Min Inh-GAPLA).
# In the evaluation, for control, PMA/ionomycin-treated 2H4 cells and PMA/ionomycin-untreated 2H4 cells were also measured for nIL2LA.
# (§2) % suppression={(nIL2LA in 2H4 cells untreated with a chemical substance)−(nIL2LA in 2H4 cells treated with a chemical substance)}×100/(nIL2LA in 2H4 cells untreated with a chemical substance) ---(1) Inh-GAPLA=(GAPLA in 2H4 cells treated with a chemical substance)/(GAPLA in 2H4 cells untreated with a chemical substance) ---(2)
# [2] = test system: 2H4 cells; test: IL-2 Luc assay: evaluation of chemical substance in 2H4 cells; settings: for IL-2 Luc Assay: 1 h chemical, then PMA/ionomycin, luminescence after six hours, class from Min % suppression of nIL2LA
# Method: as §1, §2
# The chemical substances listed in Table 1 were evaluated using 2H4 cells. 2H4 cells were seeded in a 96-well plate at 2×10^5 cells/50 μl/well and treated with each chemical substance for 1 hour, followed by incubating the cells with 25 nM PMA and 1 µM ionomycin […]. After six hours from the treatment with PMA and ionomycin, Tripluc: Assay Reagent (manufactured by Toyobo Co., Ltd.) was added, and the amount of luminescence was measured with a Phelios microplate luminometer (manufactured by Atto Corporation). For control, 2H4 cells untreated with a chemical substance were also examined in the same manner. The amount of luminescence of SLG luciferase activity (IL2LA), SLR luciferase activity (GAPLA), and SLO luciferase activity (IFNLA) was measured, and IL-2LA and IFNLA were each normalized by GAPLA and determined to be nIL2LA and nIFNLA, respectively. Thereafter, for the concentration of each chemical substance, the value of suppression was calculated according to formula (1) above, and the chemical substances were evaluated by using their minimum value (Min suppression).
# [3] = test system: 2H4 cells; test: Evaluation of combination of IL-2 Luc LTT and IL-2 Luc assay; design: key: Positive (Pos): If the result is either LCT in the IL-2 Luc LTT or S in the IL-2 Luc assay, or both, the chemical substance is determined to be an immunosuppressive substance.; Negative (Neg): In the case other than the above, the chemical substance is determined to be a non-immunosuppressive substance; settings: LCT in IL-2 Luc LTT or S in IL-2 Luc assay = Pos
# Method: Positive (Pos): If the result is either LCT in the IL-2 Luc LTT or S in the IL-2 Luc assay, or both, the chemical substance is determined to be an immunosuppressive substance. Negative (Neg): In the case other than the above, the chemical substance is determined to be a non-immunosuppressive substance.
Compound,determination in IL-2 Luc LTT (in words) [1],IL-2 Luc LTT [1],determination by the IL-2 Luc assay alone (in words) [2],IL-2 Luc Assay [2],Evaluation of Combination [3]
"NC(=O)c1ncn([C@@H]2O[C@H](CO)[C@@H](O)[C@H]2O)c1O [Mizoribine (MZR), Mizoribine]",inhibit cell growth and/or metabolic activity,LCT (Min % suppression ≤−35 and Min Inh-GAPLA <0.7: Leukocyte toxic (denoted as “LCT”; determined to have cell growth inhibition action and/or metabolic activity inhibition action)),determined to not have imnunosuppressive action,N (−35<Min % suppression <35: No Effect (denoted as “N”; determined to not affect immunity)),Pos
CC(=O)O[C@H]1C(=O)[C@@]2(C)[C@H]([C@H](OC(=O)c3ccccc3)[C@]3(O)C[C@H](OC(=O)[C@H](O)[C@@H](NC(=O)c4ccccc4)c4ccccc4)C(C)=C1C3(C)C)[C@]1(OC(C)=O)CO[C@@H]1C[C@@H]2O [Paclitaxel],–,LCT (Min % suppression ≤−35 and Min Inh-GAPLA <0.7: Leukocyte toxic (denoted as “LCT”; determined to have cell growth inhibition action and/or metabolic activity inhibition action)),–,S (Min %; suppression ≥35: Suppression (denoted as “S”; determined to have immunosuppressive action)),Pos
OC[C@@H](O)[C@@H](O)[C@H](O)[C@H](O)CO [Mannitol],–,I (−35<Min % suppression <35 and 0.7≤Min Inh-GAPLA: Inconclusive (denoted as “I”; possibly not measurable due to low water solubility)),–,N (−35<Min % suppression <35: No Effect (denoted as “N”; determined to not affect immunity)),Neg
Cc1c(OCC(F)(F)F)ccnc1C[S+]([O-])c1nc2ccccc2[nH]1 (stereo not shown) [Lansoprazole],–,NLCT,–,S (Min %; suppression ≥35: Suppression (denoted as “S”; determined to have immunosuppressive action)),Pos
Nc1ccn([C@@H]2O[C@H](CO)[C@@H](O)C2(F)F)c(=O)n1 [Gemcitabine hydrochloride],–,NLCT,–,N (−35<Min % suppression <35: No Effect (denoted as “N”; determined to not affect immunity)),Pos
"CCN(CC)CCCC(C)Nc1ccnc2cc(Cl)ccc12 (stereo not shown) [Chloroquine (CQ), Chloroquine]",–,NLCT,–,S (Min %; suppression ≥35: Suppression (denoted as “S”; determined to have immunosuppressive action)),Pos
Bleomycin sulfate,–,LCT (Min % suppression ≤−35 and Min Inh-GAPLA <0.7: Leukocyte toxic (denoted as “LCT”; determined to have cell growth inhibition action and/or metabolic activity inhibition action)),–,N (−35<Min % suppression <35: No Effect (denoted as “N”; determined to not affect immunity)),Pos
COc1ccc2c(c1)c(CC(=O)O)c(C)n2C(=O)c1ccc(Cl)cc1 [Indomethacin],–,–,–,S (Min %; suppression ≥35: Suppression (denoted as “S”; determined to have immunosuppressive action)),Pos
COc1cc([C@@H]2c3cc4c(cc3[C@@H](O[C@@H]3O[C@@H]5CO[C@@H](C)O[C@H]5[C@H](O)[C@H]3O)[C@H]3COC(=O)[C@H]23)OCO4)cc(OC)c1O [Etoposide],–,–,–,N (−35<Min % suppression <35: No Effect (denoted as “N”; determined to not affect immunity)),Pos
"O=C(O)c1cc(/N=N/c2ccc(S(=O)(=O)Nc3ccccn3)cc2)ccc1O [Sulfasalazine (SASP), Sulfasalazine]",–,–,–,S (Min %; suppression ≥35: Suppression (denoted as “S”; determined to have immunosuppressive action)),Pos
"CC(=O)Nc1ccc(O)cc1 [Acetaminophen (AA), Acetaminophen]",–,–,–,A (Min suppression ≤−35: Augmentation (denoted as “A”; determined to have immunoaugmenting action)),Pos
